The target in one assay is T1, human 11β-HSD1 (Homo sapiens, UniProt P28845).
T1 construct: 100 ug/ml human/mouse liver microsomes; from tissue; host or cells: human liver microsomes
Nature of the assay: Enzyme activity analysis on human 11β-HSD1 (HTRF cortisol, liver microsomes). Format: biochemical. To be noted: first value of cell. The procedure:
(§1) After culturing at 37° C. for 2 hours, 5 μl of cryptate-labeled anti-cortisol antibody and 5 μl of d2-labeled cortisol were added thereto. After further culturing at room temperature for 2 hours, a homogeneous time-resolved fluorescence (HTRF, Cisbio) signal was measured. From each analysis, based on a standard curve calculated using cortisols of several known concentrations, an amount of produced cortisol was tested.
(§2) While an amount of cortisol, produced without the compound, was used as a control, an inhibition percentage by the test compound, at each concentration, was calculated. By using an inhibition curve calculated by coordinates of inhibition percentage to test compound concentration, an IC50 value of the compound on 11β-HSD1 was obtained.

The target of another assay is T2, mouse 11β-HSD1 (Mus musculus, UniProt P50172).
T2 construct: 100 ug/ml human/mouse liver microsomes; from tissue; host or cells: mouse liver microsomes
Put plainly: Enzyme activity analysis on mouse 11β-HSD1 (HTRF cortisol, liver microsomes). Format: biochemical. To be noted: second value of cell. The procedure: as §1, §2

By IC50 is commonly meant the concentration that inhibits the measured activity by half.

T2 sequence (P50172 whole entry): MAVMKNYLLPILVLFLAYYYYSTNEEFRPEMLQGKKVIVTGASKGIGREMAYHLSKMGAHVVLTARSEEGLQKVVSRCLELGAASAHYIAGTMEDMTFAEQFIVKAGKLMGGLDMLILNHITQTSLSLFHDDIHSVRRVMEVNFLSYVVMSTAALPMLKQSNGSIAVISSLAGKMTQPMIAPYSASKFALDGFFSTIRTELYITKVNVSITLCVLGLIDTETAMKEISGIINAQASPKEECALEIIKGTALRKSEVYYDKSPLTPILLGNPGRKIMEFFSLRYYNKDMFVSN
T1 sequence (P28845 whole entry): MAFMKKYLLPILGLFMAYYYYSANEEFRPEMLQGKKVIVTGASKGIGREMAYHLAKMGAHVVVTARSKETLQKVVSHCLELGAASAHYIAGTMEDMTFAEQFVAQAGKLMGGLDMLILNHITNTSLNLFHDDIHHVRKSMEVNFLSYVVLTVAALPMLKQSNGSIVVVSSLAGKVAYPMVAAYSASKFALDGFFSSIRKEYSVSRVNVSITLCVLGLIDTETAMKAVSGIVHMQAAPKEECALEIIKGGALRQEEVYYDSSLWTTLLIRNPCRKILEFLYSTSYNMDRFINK

For the molecule `NC(=O)C12CC3CC(C1)C(NC(=O)C1(NS(=O)(=O)c4ccccc4C(F)(F)F)CCCCC1)C(C3)C2` (centres unmarked) [compound 181, N-4-(1-(2-trifluoromethylphenylsulfonamido)cyclohexanecarboxyamido)adamantane-1-carboxyamide], the half-maximal inhibitory concentration (IC50) on human 11β-HSD1 turned out to be 0.019 µM; against mouse 11β-HSD1, 0.132 µM. The like results for `CN(C(C)(C)C(=O)NC1C2CC3CC1CC(C(N)=O)(C3)C2)S(=O)(=O)c1cccc(Cl)c1Cl` (centres unmarked) [compound 198] were, in that order, 0.008 µM and 0.003 µM. The like results for `COc1ccc(S(=O)(=O)NC(C)(C)C(=O)NC2C3CC4CC2CC(C(N)=O)(C4)C3)cc1` (centres unmarked) [compound 86, N-4-(2-(4-methoxyphenylsulfonamido)-2-methylpropanamido)adamantane-1-carboxyamide] were, in that order, above 2.5 µM and above 2.5 µM. For `Cc1ccc([N+](=O)[O-])cc1S(=O)(=O)NC(C)(C)C(=O)NC1C2CC3CC1CC(O)(C3)C2` (centres unmarked) [compound 76, N-(5-hydroxyadamantane-2-yl)-2-methyl-2-(2-methyl-5-nitrophenylsulfonamido)propanamide] the same measures were 0.146 µM and 2.08 µM.

Regarding `CC(C)(NS(=O)(=O)c1cccc2cccnc12)C(=O)NC1C2CC3CC(C2)CC1C3` (centres unmarked) [compound 17, N-(adamantane-2-yl)-2-methyl-2-(quinoline-8-sulfonamido)propanamide], the IC50 against human 11β-HSD1 and on mouse 11β-HSD1 was 0.008 µM each time. On to `CCCc1ccc(S(=O)(=O)NC(C)(C)C(=O)NC2C3CC4CC(C3)CC2C4)cc1` (centres unmarked) [compound 67, N-(adamantane-2-yl)-2-methyl-2-(4-propylphenylsulfonamido)propanamide], for which the IC50 at human 11β-HSD1 was 1.29 µM; against mouse 11β-HSD1 it was 1.26 µM. As to `CC(C)(NS(=O)(=O)c1cccc(C(F)(F)F)c1)C(=O)NC1C2CC3CC(C2)CC1C3` (centres unmarked) [compound 19, N-(adamantane-2-yl)-2-methyl-2-(3-trifluoromethylphenylsulfonamido)propanamide], the half-inhibitory concentration (IC50) at human 11β-HSD1 was determined as 0.478 µM. For `CC(C)(NS(=O)(=O)c1cc(F)c(F)c(F)c1)C(=O)NC1C2CC3CC1CC(C(N)=O)(C3)C2` (centres unmarked) [compound 118, N-4-(2-(3,4,5-trifluorophenylsulfonamido)-2-methylpropanamido)adamantane-1-carboxy amide], the IC50 was 0.116 µM against human 11β-HSD1 and 0.224 µM on mouse 11β-HSD1.

`NC(=O)C12CC3CC(C1)C(NC(=O)C1(NS(=O)(=O)c4ccccc4Br)CCCC1)C(C3)C2` (centres unmarked) [compound 174, N-4-(1-(2-bromophenylsulfonamido)cyclopentanecarboxyamido)adamantane-1-carboxyamide]: the IC50 on human 11β-HSD1 came out at 0.017 µM; against mouse 11β-HSD1, 0.015 µM. The like results for `CC(C)(NS(=O)(=O)c1ccc(Br)cc1OC(F)(F)F)C(=O)NC1C2CC3CC1CC(C(N)=O)(C3)C2` (centres unmarked) [compound 100, N-4-(2-(2-trifluoromethoxy-4-bromophenylsulfonamido)-2-methylpropanamido)adamantane-1-carboxyamide] were, in that order, 0.018 µM and 0.21 µM.

Take `CC(C)(NS(=O)(=O)c1ccccc1F)C(=O)NC1C2CC3CC1CC(O)(C3)C2` (centres unmarked) [compound 69, N-(5-hydroxyadamantane-2-yl)-2-methyl-2-(2-fluorophenylsulfonamido)propanamide]: the IC50 against human 11β-HSD1 is 0.118 µM; against mouse 11β-HSD1 it was 0.258 µM. The like results for `CN(C(C)(C)C(=O)NC1C2CC3CC1CC(C(N)=O)(C3)C2)S(=O)(=O)c1ccccc1[N+](=O)[O-]` (centres unmarked) [compound 197, N-4-(2-(2-nitro-N-methylphenylsulfonamido)-2-methylpropanamido)adamantane-1-carboxyamide] were, in that order, 0.004 µM and 0.008 µM. `Cc1ccc(S(=O)(=O)NC(C)(C)C(=O)NC2C3CC4CC(C3)CC2C4)cc1Cl` (centres unmarked) [compound 62, N-(adamantane-2-yl)-2-methyl-2-(4-methyl-3-chlorophenylsulfonamido)propanamide]: the IC50 against human 11β-HSD1 came out at 0.215 µM; against mouse 11β-HSD1, 0.686 µM.

`CC(C)(NS(=O)(=O)c1cccc2ccccc12)C(=O)NC1C2CC3CC(C2)CC1C3` (centres unmarked) [compound 20, N-(adamantane-2-yl)-2-methyl-2-(naphthalene-1-sulfonamido)propanamide] gave an IC50 against human 11β-HSD1 of 0.304 µM. With `CC(C)(NS(=O)(=O)c1ccc(Cl)cc1F)C(=O)NC1C2CC3CC(C2)CC1C3` (centres unmarked) [compound 31, N-(adamantane-2-yl)-2-methyl-2-(4-chloro-2-fluorophenylsulfonamido)propanamide], the IC50 at human 11β-HSD1 was determined as 0.409 µM; on mouse 11β-HSD1 it was 1.06 µM.

Regarding `CC(C)(NS(=O)(=O)c1ccc(Cl)cc1Cl)C(=O)NC1C2CC3CC1CC(O)(C3)C2` (centres unmarked) [compound 81, N-(5-hydroxyadamantane-2-yl)-2-methyl-2-(2,4-dichlorophenylsulfonamido)propanamide], the values for the half-inhibitory concentration (IC50) against human 11β-HSD1 and against mouse 11β-HSD1 were 0.03 µM and 0.221 µM, respectively. Regarding `CC(C)(NS(=O)(=O)c1ccccc1)C(=O)NC1C2CC3CC(C2)CC1C3` (centres unmarked) [compound 1, N-(adamantane-2-yl)-2-methyl-2-(phenylsulfonamido)propanamide], the results for the IC50 on human 11β-HSD1 and against mouse 11β-HSD1 were 0.04 µM and 0.19 µM, respectively. The like results for `Cc1ccc(S(=O)(=O)NC(C)(C)C(=O)NC2C3CC4CC(C3)CC2C4)cc1F` (centres unmarked) [compound 27, N-(adamantane-2-yl)-2-methyl-2-(4-methyl-3-fluorophenylsulfonamido)propanamide] were, in that order, 0.555 µM and 1.12 µM.

For `O=C(NC1C2CC3CC(C2)CC1C3)C1(NS(=O)(=O)c2ccccc2C(F)(F)F)CCC1` (centres unmarked) [compound 140, N-(adamantane-2-yl)-1-(2-trifluoromethylphenylsulfonamido)cyclobutanecarboxyamide], the concentration for half-maximal inhibition (IC50) was 0.184 µM against human 11β-HSD1 and 1.68 µM on mouse 11β-HSD1. For `COc1cc([N+](=O)[O-])ccc1S(=O)(=O)NC(C)(C)C(=O)NC1C2CC3CC(C2)CC1C3` (centres unmarked) [compound 60, N-(adamantane-2-yl)-2-methyl-2-(4-nitro-2-methoxyphenylsulfonamido)propanamide] the same measures were 0.135 µM and 0.644 µM. The like results for `CC(C)(NS(=O)(=O)c1c(Cl)cccc1Cl)C(=O)NC1C2CC3CC(C2)CC1C3` (centres unmarked) [compound 45, N-(adamantane-2-yl)-2-methyl-2-(2,6-dichlorophenylsulfonamido)propanamide] were, in that order, 0.009 µM and 0.02 µM. For `NC(=O)C12CC3CC(C1)C(NC(=O)C1(NS(=O)(=O)c4ccccc4[N+](=O)[O-])CCC1)C(C3)C2` (centres unmarked) [compound 145, N-4-(1-(2-nitrophenylsulfonamido)cyclobutanecarboxyamido)adamantane-1-carboxyamide] the same measures were 0.08 µM and 0.509 µM. For the molecule `CC(C)NC(=O)C12CC3CC(C1)C(NC(=O)C1(NS(=O)(=O)c4ccccc4Cl)CCC1)C(C3)C2` (centres unmarked) [compound 236, 4-({1-[(2-chloro-benzenesulfonyl)-methyl-amino]-cyclobutanecarbonyl}-amino)-adamantane-1-carboxylic acid-isopropylamide], the concentration for half-maximal inhibition (IC50) against human 11β-HSD1 and against mouse 11β-HSD1 was above 2.5 µM each time. Take `NC(=O)C12CC3CC(C1)C(NC(=O)C1(NS(=O)(=O)c4ccccc4)CCCC1)C(C3)C2` (centres unmarked) [compound 171, N-4-(1-(phenylsulfonamido)cyclopentanecarboxyamido)adamantane-1-carboxyamide]: the IC50 stood at 0.038 µM against human 11β-HSD1 and 0.12 µM on mouse 11β-HSD1.

As for `CCN(C(C)(C)C(=O)NC1C2CC3CC1CC(C(N)=O)(C3)C2)S(=O)(=O)c1ccccc1[N+](=O)[O-]` (centres unmarked) [compound 216], the figures for the IC50 against human 11β-HSD1 and on mouse 11β-HSD1 were 0.009 µM and 0.974 µM, respectively. The like results for `Cc1ccc(F)c(S(=O)(=O)NC2(C(=O)NC3C4CC5CC3CC(C(N)=O)(C5)C4)CCC2)c1` (centres unmarked) [compound 164, N-4-(1-(2-fluoro-5-methylphenylsulfonamido)cyclobutanecarboxyamido)adamantane-1-carboxyamide] were, in that order, 0.058 µM and 0.298 µM. Turning to `CC(C)(NS(=O)(=O)c1ccc(C(C)(C)C)cc1)C(=O)NC1C2CC3CC(C2)CC1C3` (centres unmarked) [compound 18, N-(adamantane-2-yl)-2-methyl-2-(4-(t-butyl)phenylsulfonamido)propanamide], the IC50 against human 11β-HSD1 is 1.14 µM. The same measure, in the same setting: next, `COc1ccc(S(=O)(=O)NC(C)(C)C(=O)NC2C3CC4CC(C3)CC2C4)cc1` (centres unmarked) [compound 24, N-(adamantane-2-yl)-2-methyl-2-(4-methoxyphenylsulfonamido)propanamide]: 0.404 µM; `CC(C)(NS(=O)(=O)c1ccc(Cl)c(Cl)c1)C(=O)NC1C2CC3CC(C2)CC1C3` (centres unmarked) [compound 11, N-(adamantane-2-yl)-2-methyl-2-(3,4-dichlorophenylsulfonamido)propanamide]: 0.35 µM; `CC(C)(NS(=O)(=O)c1c(Cl)cc(Cl)cc1Cl)C(=O)NC1C2CC3CC(C2)CC1C3` (centres unmarked) [compound 14, N-(adamantane-2-yl)-2-methyl-2-(2,4,6-trichlorophenylsulfonamido)propanamide]: 0.17 µM. The same measure, in the same setting: for `CC(C)(NS(=O)(=O)c1ccc2ccccc2c1)C(=O)NC1C2CC3CC(C2)CC1C3` (centres unmarked) [compound 21, N-(adamantane-2-yl)-2-methyl-2-(naphthalene-2-sulfonamido)propanamide] the value was 0.466 µM. Take `CN(C(C)(C)C(=O)NC1C2CC3CC1CC(C(N)=O)(C3)C2)S(=O)(=O)c1ccccc1F` (centres unmarked) [compound 195, N-4-(2-(2-fluoro-N-methylphenylsulfonamido)-2-methylpropanamido)adamantane-1-carboxyamide]: it took 0.015 µM to reach half-maximal inhibition on mouse 11β-HSD1 (IC50).

Source of the values: US9073830B2 (Hyundai Pharm Co., Ltd., priority 2011, dated 2015).
